The nature of series [1]: Inhalation of insulin/enhancer powder in rats, blood glucose monitored as measure of insulin uptake. The class given is in vivo, rat. To be noted: for Enhancement of polypeptide (insulin) absorption in the lung, result in words: rat model; for Effect (enhancement of insulin uptake, blood glucose level): rats, inhaled powder.
Experimental: Each of the compounds listed in Table I was tested for its ability to enhance uptake of a polypeptide (insulin) in a rat model.
Various forms of insulin were employed in the different trials: recombinant human, semisynthetic human or bovine. Each formulation was prepared as above, drying and processing the insulin/enhancer or insulin/enhancer/lactose solution to produce an inhalable powder. The powder was administered to rats by inhalation, and the blood glucose levels of the rats were subsequently monitored as a measure of insulin uptake. These levels were compared to the corresponding values obtained from rats which had inhaled insulin formulations without enhancer.
The subject of series [2] is CaCo-2 epithelial cell monolayer. The series is described as follows: In vitro CaCo-2 epithelial cell monolayer transport assay. The class given is in vitro ADME. To be noted: for Transport rate across the monolayer with enhancer, in words: up to 16 mM sodium caprate. Here is the method:
A standard in vitro assay utilizing an epithelial cell line, CaCo-2 (available through the American Type Culture Collection (ATCC), Rockville, Md., USA), has been developed to assess the ability of various enhancer compounds to promote transport of markers across an epithelial cell monolayer, as a model for the epithelial cell layer which functions in the lung to separate the alveolus from the pulmonary blood supply.
In this assay, the enhancer and polypeptide or other marker are dissolved in aqueous solution at various proportions and/or concentrations, and applied to the apical side of the cell monolayer. After 60 min incubation at 37° C. and 95% RH (relative humidity), the amount of the marker on the basolateral side of the cells is determined, e.g., by use of a radioactively labelled marker.

[3] abbreviates: Enhancer:Insulin:lactose 4:4:92.
[4] abbreviates: Enhancer:Insulin:lactose 25:75:0.
The mark [5] stands for this setting: Enhancer:Insulin:lactose 2:4:94.

On to Lysophosphatidylcholine, for which the “Enhancement of polypeptide (insulin) absorption in the lung, result in words” value (“Enhancement of polypeptide” below) in series [1] is given as “effective enhancer”. Besides, in series [1] (setting [3]), the “Effect (enhancement of insulin uptake, blood glucose level)” value (from here on “Effect”) was “+”.
As to Lysine caprate, in series [1], the “Enhancement of polypeptide” value is reported as “effective”. Further, the “Effect” value in series [1] (Enhancer:Insulin:lactose 35:65:0) is on record as “+”.
As to `C[C@H](CCC(=O)NCC(=O)O)[C@H]1CC[C@H]2[C@@H]3[C@H](O)C[C@@H]4C[C@H](O)CC[C@]4(C)[C@H]3C[C@H](O)[C@]12C` [Sodium glycocholate], the “Enhancement of polypeptide” value in series [1] is on record as “effectively enhance polypeptide absorption in the lung”. Moreover, the “Effect” value in series [1] (setting [3]) is “+”.
On the same counts, the results for `C[C@H](CCC(=O)NCCS(=O)(=O)O)[C@H]1CC[C@H]2[C@@H]3[C@H](O)C[C@@H]4C[C@H](O)CC[C@]4(C)[C@H]3C[C@H](O)[C@]12C` [Sodium taurocholate] are “effectively enhance polypeptide absorption in the lung” and “+”.
On the same counts, the results for `CCCCCCCCOC1O[C@H](CO)[C@@H](O)[C@H](O)[C@H]1O` (stereo partly shown) [Octylglucopyranoside] are “some absorption enhancing properties” and “(+)”.
cytochrome C: the “Transport rate across the monolayer with enhancer, in words” value (“Transport rate across the monolayer” for short) in series [2] is reported as “no increase in transport rate”.
Take `CCCCCCCCCC(=O)[O-].[Na+]` [Sodium caprate]: the “Amount of marker (mannitol) appearing on the basolateral side, insulin added” value in series [2] (1:3 sodium caprate:insulin by weight, FIG. 2) is reported as “dependent upon the concentration of enhancer used”. Further, in series [2] (sodium caprate up to 16 mM, 60 min, 37° C., FIG. 1), the “Amount of marker (mannitol) appearing on the basolateral side” value is recorded as “dependent upon the concentration of enhancer used”. The “Enhancement of polypeptide” value in series [1] is “perform well”. Also, the “Effect” value in series [1] (Enhancer:Insulin:lactose 10:90:0) is “(+)”; in series [1] (Enhancer:Insulin:lactose 17.5:82.5:0), “(+)”; in series [1] (setting [4]), “+”.
`CCCCCCCC(=O)[O-].[Na+]` [Sodium caprylate]: in series [1] (setting [4]), the “Effect” value is “-”.
Consider `CCCCCCCCCC(=O)[O-].[K+]` [Potassium caprate], for which the “Enhancement of polypeptide” value in series [1] is “effective”. Also, in series [1] (Enhancer:Insulin:lactose 27:73:0), the “Effect” value is listed as “+”.
Regarding carbonic anhydrase, the “Transport rate across the monolayer” value in series [2] is “no increase in transport rate”.
For Dimethyl-β-cyclodextrin, the “Enhancement of polypeptide” value in series [1] is given as “absorption enhancing effect”. In addition, the “Effect” value in series [1] (Enhancer:Insulin:lactose 75:25:0) was “+”.
Turning to `CCCCCCCCCCCC(=O)[O-].[Na+]` [Sodium laurate], the “Enhancement of polypeptide” value in series [1] is on record as “perform well”. The “Effect” value in series [1] (setting [4]) was “+”.
Turning to `CCCCCCCCCCCCCC(=O)[O-].[Na+]` [Sodium myristate], in series [1], the “Enhancement of polypeptide” value was “perform well”. Besides, in series [1] (Enhancer:Insulin:lactose 30:70:0), the “Effect” value is “+”.
With `CC(=O)OC1CC2(C)C(CC(O)C3C4(C)CCC(O)C(C)C4CCC32C)C1=C(CCCC(C)C)C(=O)NCCS(=O)(=O)O` (stereo not shown) [Sodium tarodihydrofusidate], in series [1], the “Enhancement of polypeptide” value was “effectively enhance polypeptide absorption in the lung”. Moreover, in series [1] (setting [5]), the “Effect” value is given as “+”.
`O=C(O)CN(CCN(CC(=O)O)CC(=O)O)CC(=O)O` [EDTA, ethylenediaminetetraacetic acid]: the “Enhancement of polypeptide” value in series [1] is reported as “ineffective”.
For the compound albumin, the “Transport rate across the monolayer” value in series [2] is given as “no increase in transport rate”.
For `C[C@H](CCC(=O)O)[C@H]1CC[C@H]2[C@@H]3[C@@H](O)C[C@@H]4C[C@H](O)CC[C@]4(C)[C@H]3CC[C@]12C` [Sodium ursodeoxycholate], the “Enhancement of polypeptide” value in series [1] was “effectively enhance polypeptide absorption in the lung”. In series [1] (setting [3]), the “Effect” value was “+”.
With `CCCCCCCC(=O)OCC(COP(=O)([O-])OCC[N+](C)(C)C)OC(=O)CCCCCCC` (stereo not shown) [Dioctanoylphosphatidylcholine], the “Effect” value in series [1] (setting [5]) is given as “(+)”; in series [1] (Enhancer:Insulin:lactose 4:4:94), “-”.
On to `NC(=O)CC[C@@H]1NC(=O)[C@H](Cc2ccccc2)NC(=O)[C@H](Cc2ccc(O)cc2)NC(=O)[C@@H](N)CSSC[C@@H](C(=O)N2CCC[C@H]2C(=O)N[C@@H](CCCN=C(N)N)C(=O)NCC(N)=O)NC(=O)[C@H](CC(N)=O)NC1=O` [vasopressin], for which the “Increase in amount absorbed across the monolayer compared to absence of enhancer” value in series [2] (16 mM sodium caprate) is listed as 10-15 times.
For `CCCCCCCC/C=C\CCCCCCCC(=O)[O-].[K+]` [Potassium oleate], the “Effect” value in series [1] (setting [3]) was “+”.

These data come from patent US5952008A, “Processes for preparing compositions for inhalation” (AB Astra, priority 1993, dated 1999).
